Columns and labels:
A549 cells [1] = experiment: JC-1 mitochondrial membrane potential assay; format: cell-based; conditions: cisplatin or Pt(IV)(α-TOS)(OEt) at 20 μM, 4 hours
Procedure: To investigate the effect of Pt(IV)(α-TOS)(OEt) on mitochondria, changes in the mitochondrial membrane potential were assessed by the JC-1 assay. JC-1 (5,5′,6,6′-tetrachloro-1,1′3,3′-tetraethylbenzimidazolylcarbocyanine iodide) is a positively charged lipophilic dye, which accumulates in the mitochondria of healthy cells as red-emitting aggregates. When the mitochondrial membrane is compromised, JC-1 de-aggregates into monomeric forms that emit green fluorescence. […] These findings were confirmed using flow cytometry. A large population of untreated and Pt(IV)(α-TOS)(OEt)-treated A549 cells were examined.
In order to monitor the cell cycle, flow cytometry studies were carried out. A549 cells were incubated with and without the test compounds for 24 and 48 h at 37° C. Cells were harvested from adherent cultures by trypsinization and combined with all detached cells from the incubation medium to assess total cell viability. Following centrifugation at 1000 rpm for 5 min, cells were washed with PBS and then fixed with 70% ethanol in PBS. Fixed cells were collected by centrifugation at 2500 rpm for 3 min, washed with PBS and centrifuged as before. Cellular pellets were re-suspended in 50 μg/mL propidium iodide (Sigma) in PBS for nucleic acids staining and treated with 100 μg/mL RNaseA (Sigma). DNA content was measured on a FACSCalibur-HTS flow cytometer (BD Biosciences) using laser excitation at 488 nm and 20,000 events per sample were acquired. Cell cycle profiles were analysed using the ModFit software. For the apoptosis experiments, the Annexin V-FITC Early Apoptosis Detection Kit (Cell Signaling Technology) was used. […] The samples were kept on ice prior to being read on the FACSCalibur-HTS flow cytometer (BD Biosciences) (20,000 events per sample were acquired). Cell populations were analysed using the FlowJo software (Tree Star). […] The cells were incubated for 30 min, harvested, and analysed by using the FACSCalibur-HTS flow cytometer (BD Biosciences) (20,000 events per sample were acquired). […] Cell populations were analysed using the FlowJo software (Tree Star).

PC-3 cells = experiment: MTT cytotoxicity assay, PC-3
From the text: (§1) (a) Dulbecco's Modified Eagle Medium (DMEM), Dulbecco's phosphate buffered saline (DPBS), fetal bovine serum (FBS) and 0.25% trypsin/EDTA solutions were purchased from Cellgro (Manassas, Va.). Penicillin-streptomycin solutions were purchased from Mediatech (Manassas, Va.). (b) HeLa (CCL-2TM) cells, A549, A2870, A2870/CP70, MCF-7, PC-3, and MRC-5 cells were purchased from American Type Culture Collection (ATCC, Manassas, Va., USA). (c) HCT116 cells were kindly donated by Laura Trudel (MIT). HeLa, A549, MCF-7, and MRC-5 cells were cultured using DMEM supplemented with 10% FBS and 1% penicillin-streptomycin. A2870, A2870/CP70, and PC-3 cells were cultured in RPMI supplemented with 10% FBS and 1% penicillin-streptomycin. HCT116 cells were cultured in McCoy's supplemented with 10% FBS and 1% penicillin-streptomycin. All cell-culture experiments were performed in the aforementioned media in an incubator operating at 37° C. and in the presence of a humidified atmosphere containing 5.0% CO2. Cells were harvested using a 0.25% trypsin/EDTA solution.
(§2) The cytotoxicity of the compounds was assessed by means of the MTT assay (MTT=3-(4,5-dimethyl-2-thiazolyl)-2,5-diphenyl-2H-tetrazolium bromide). Typically, on day one, ˜1×10^3 cells were seeded into 96-well plates in 100 μL media per well. The last row of the plate was left empty as a control for background absorption. The cells were allowed to grow for 24 h in the incubator at 37° C. On day two, a series of drug dilutions in growth media were prepared immediately prior to cell treatment. The media in the wells of the 96 plates were replaced with 100 μL of growth media containing appropriate drug concentrations. The cells were treated for 48 h at 37° C. in the incubator. On day four, a stock solution of MTT (5 mg/mL in PBS buffer) was diluted with media so that, when 100 μL of the media was added to each well, 10 μL of MTT stock was applied. […] The optical density for each well at 550 nm was measured with a microplate reader.

HCT116 cells = experiment: MTT cytotoxicity assay, HCT116
From the text: as §1, §2

MCF-7 cells = experiment: MTT cytotoxicity assay, MCF-7
From the text: as §1, §2

[2] = test system: MRC-5 non-tumorigenic lung fibroblast cells; experiment: in vitro
From the text: as §1
(§3) The cytotoxicity of the compounds was assessed by means of the MTT assay (MTT=3-(4,5-dimethyl-2-thiazolyl)-2,5-diphenyl-2H-tetrazolium bromide). Typically, on day one, ˜1×10^3 cells were seeded into 96-well plates in 100 μL media per well. The last row of the plate was left empty as a control for background absorption. The cells were allowed to grow for 24 h in the incubator at 37° C. On day two, a series of drug dilutions in growth media were prepared immediately prior to cell treatment. The media in the wells of the 96 plates were replaced with 100 μL of growth media containing appropriate drug concentrations. The cells were treated for 48 h at 37° C. in the incubator. On day four, a stock solution of MTT (5 mg/mL in PBS buffer) was diluted with media so that, when 100 μL of the media was added to each well, 10 μL of MTT stock was applied. The cells were incubated for 2 h and then all the media was replaced with 100 μL of DMSO to dissolve the purple MTT-formazan crystals. The optical density for each well at 550 nm was measured with a microplate reader.

all cell lines = experiment: MTT cytotoxicity assay, across the cell lines; format: cell-based; conditions: all cell lines; MTT; read-out: IC50 against all cell lines
From the text: as §1
(§4) The cytotoxicity of the compounds was assessed by means of the MTT assay (MTT=3-(4,5-dimethyl-2-thiazolyl)-2,5-diphenyl-2H-tetrazolium bromide). Typically, on day one, ˜1×10^3 cells were seeded into 96-well plates in 100 μL media per well. […] The optical density for each well at 550 nm was measured with a microplate reader.

Bcl-xL-Bax interactions = target: T1, Bcl-xL-Bax interactions (Homo sapiens, UniProt Q07817); experiment: Co-immunoprecipitation of Bcl-xL, probed for Bax; format: cell-based; conditions: A549 cells, respective IC50 values, 48 h
T1 construct: endogenous in cells; host or cells: A549
T1 sequence (Q07817 whole entry): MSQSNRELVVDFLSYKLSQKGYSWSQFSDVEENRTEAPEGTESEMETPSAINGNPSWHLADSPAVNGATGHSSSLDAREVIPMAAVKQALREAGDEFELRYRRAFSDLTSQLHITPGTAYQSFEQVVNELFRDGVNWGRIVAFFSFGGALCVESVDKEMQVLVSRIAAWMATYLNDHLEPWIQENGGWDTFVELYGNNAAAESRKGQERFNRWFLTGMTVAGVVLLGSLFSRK
Procedure: (§5) α-TOS is known to disrupt Bcl-xL-Bax interactions, activate Bax, and thus mediate mitochondrial centered apoptotic cell death. Co-immunoprecipitation studies were carried out to determine whether the Pt(IV)-α-TOS conjugates could behave in a similar manner. […] Additional immunoblotting studies were carried to determine the effect of Pt(IV)(α-TOS)(OEt) treatment on transcription. […] Overall Pt(IV)(α-TOS)(OEt) was able to (1) downregulate Bcl-xL expression and (2) inhibit the interaction of Bcl-xL with Bax, a prerequisite for mitochondrial dysfunction. The former is inherent to cisplatin but not α-TOS, and the latter was inherent to α-TOS but not cisplatin.
A549 cells (5×10^5 cells) were incubated with test compound for 48 h at 37° C. […] The resultant cell lysate was treated with protein A-agarose bead slurry (50 μL) and centrifuged to remove proteins that bind non-specifically. Anti Bcl-XL antibody (Cell Signalling Technology) was added to the lysate and incubated for 2 h at room temperature. Protein A-agarose bead slurry (50 μL) was added and the mixture was incubated at 4° C. overnight. Centrifugation allowed separation of the immunocomplex, which was washed with cold RIPA buffer (3×500 μL). The immunocomplex was then suspended in SDS-PAGE loading buffer (50 μL) and incubated at 95° C. for 10 min. The solution containing the immunocomplex was isolated by centrifugation and then analysed for Bax content using the immunoblotting analysis protocol described above.

Bcl-xL = experiment: Immunoblotting analysis of Bcl-xL expression; format: cell-based; conditions: A549 cells
Procedure: as §5
A549 cells (5×10^5 cells) were incubated with test compound for 48 h at 37° C. Cells were washed with PBS, scraped into SDS-PAGE loading buffer (64 mM Tris-HCl (pH6.8)/9.6% glycerol/2% SDS/5% β-mercaptoethanol/0.01% Bromophenol Blue) and incubated at 95° C. for 10 min. Whole cell lysates were resolved by 4-20% sodium dodecylsulphate polyacylamide gel electrophoresis (SDS-PAGE; 200 V for 1 h) followed by electro transfer to polyvinylidene difluoride membrane, PVDF (350 mA for 1 h). Membranes were blocked in 5% (w/v) non-fat milk in PBST (PBS/0.1% Tween 20) and incubated with the appropriate primary antibodies (Cell Signalling Technology and Santa Cruz). After incubation with horseradish peroxidase-conjugated secondary antibodies (Cell Signalling Technology), immune complexes were detected with the ECL detection reagent (BioRad) and analysed using an Alpha Innotech ChemiImager™ 5500 fitted with a chemiluminescence filter.

in vitro = conditions: human
From the text: as §1, §3

[3] = test system: A2780 ovarian cancer cells; experiment: PI-annexin-V dual staining apoptosis assay; format: cell-based; conditions: 10 μM for 48 hours
A549 cells [4] = experiment: MTT cytotoxicity assay, A549
From the text: as §1, §4

HeLa cells = experiment: MTT cytotoxicity assay, HeLa
From the text: as §1, §4

[5] = test system: A2780 ovarian carcinoma cells; experiment: MTT cytotoxicity assay, A2780
From the text: as §1, §4

[6] = test system: A2780/CP70 cells (CisPt resistant); experiment: MTT cytotoxicity assay, A2780/CP70
From the text: as §1, §4

Row | IC50 [2] [µM] | SMILES | IC50 (PC-3 cells) [µM] | IC50 (HCT116 cells) [µM] | IC50 (MCF-7 cells) [µM] | Bcl-xL-Bax interaction (Bax associated to the Bcl-xL immunoprecipitate) (Bcl-xL-Bax interactions) | Bcl-xL expression (Bcl-xL) | further results
1 | – | N#CC(C#N)=NNc1cccc(Cl)c1 [CCCP, carbonyl cyanide m-chlorophenyl hydrazone, reference compound] | – | – | – | – | – | JC-1 fluorescence (mitochondrial membrane disruption), microscopy (A549 cells [1]): increased green fluorescence and diminished red fluorescence
2 | > 100 | CC(=O)[O][Pt]([NH2])([NH2])([Cl])([Cl])[O]C(C)=O [Pt(IV)(OAc)2] | > 100 | > 100 | > 100 | less affected | A similar trend was observed | IC50 (all cell lines): > 100 µM
3 | – | Cc1c(C)c2c(c(C)c1OC(=O)CCC(=O)[O][Pt]([NH2])([NH2])([Cl])([Cl])[O]C(=O)CCC(=O)Oc1c(C)c(C)c3c(c1C)CCC(C)(CCCC(C)CCCC(C)CCCC(C)C)O3)CCC(C)(CCCC(C)CCCC(C)CCCC(C)C)O2 (stereo not drawn) [Pt(IV)(α-TOS)2] | – | – | – | less affected | A similar trend was observed | IC50 at 48 h (in vitro): 80.5 µM
4 | – | N.N.[Cl][Pt][Cl] [cisplatin, reference compound] | – | – | – | less affected | A similar trend was observed | cells displaying apoptotic properties [3]: 10%
5 | 28.5 | Cc1c(C)c2c(c(C)c1OC(=O)CCC(=O)O)CC[C@@](C)(CCC[C@H](C)CCC[C@H](C)CCCC(C)C)O2 [α-TOS, α-tocopherol succinate, reference compound] | 37 | 31.2 | 40.5 | markedly lower than the untreated control | – | IC50 (A549 cells [4]): 26.9 µM; IC50 (HeLa cells): 25.1 µM; IC50 [5]: 13.8 µM; IC50 [6]: 21.7 µM

Reference: patent US9133225B2, “Dual targeting anticancer agents” (priority 2013, dated 2015)
